Data from US7906522B2, “2-aminoquinazoline derivatives” (Kyowa Hakko Kirin Co., Ltd, priority 2005, dated 2011).

Tests used:
Activated human p38α = molecular target: T1, Activated human p38α (Homo sapiens, UniProt Q16539); experiment: p38MAP kinase inhibition test; format: biochemical; conditions: at a concentration of 1 μmol/L; substrate myelin basic protein, ATP 20 μmol/L, [γ-32P]ATP; read-out: enzyme inhibitory activity
T1 construct: purchased Upstate Biotechnology Inc. 14-251
Method in brief: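 Radiometric kinase assay with myelin basic protein (20 μg/assay) as substrate, 20 μmol/L ATP plus [γ-32P]ATP, MOPS pH 7.2 with MgCl2 18.75 mmol/L. Reaction run 15 min at 30° C., stopped with phosphoric acid; 32P-MBP captured on phosphocellulose and counted by scintillation.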

T1 sequence (Q16539 whole entry): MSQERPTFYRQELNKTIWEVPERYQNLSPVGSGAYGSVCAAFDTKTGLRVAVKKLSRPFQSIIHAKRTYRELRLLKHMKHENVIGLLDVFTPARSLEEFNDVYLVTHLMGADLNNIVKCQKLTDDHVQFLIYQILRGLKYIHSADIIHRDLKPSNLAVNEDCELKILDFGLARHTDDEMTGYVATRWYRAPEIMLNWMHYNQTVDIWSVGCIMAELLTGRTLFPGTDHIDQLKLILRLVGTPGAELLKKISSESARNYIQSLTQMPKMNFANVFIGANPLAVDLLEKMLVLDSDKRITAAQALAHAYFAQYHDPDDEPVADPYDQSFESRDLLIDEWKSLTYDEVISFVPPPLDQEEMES

| Compound | melting point [°C] | inhibition at 1 µM (Activated human p38α) [%] |
| --- | --- | --- |
| CC(C)Nc1ncc2cc(-c3cccc(NC(=O)c4cc(F)cc(N5CCCC5)c4)c3)c(O)cc2n1 [Compound 351, 6-{3-[3-Fluoro-5-(pyrrolidin-1-yl)benzoylamino]phenyl}-7-hydroxy-2-(isopropylamino)quinazoline] | 229 | ≥ 50 |
| CCS(=O)(=O)N1CCC(Nc2ncc3cc(-c4ccccc4Cl)c(O)cc3n2)CC1 [Compound 161, 6-(2-Chlorophenyl)-2-[1-(ethylsulfonyl)piperidin-4-ylamino]-7-hydroxyquinazoline] | 251 to 253 | ≥ 50 |
| CC(C)Nc1ncc2cc(-c3cccc(NC(=O)c4ccnc(-c5ccc(F)cc5)c4)c3)c(O)cc2n1 [Compound 355, 6-{3-[2-(4-Fluorophenyl)pyridin-4-ylcarbonylamino]phenyl}-7-hydroxy-2-(isopropylamino)quinazoline] | 243 to 245 | ≥ 50 |
| CC(C)Nc1ncc2cc(-c3cccc(NC(=O)c4cc(F)cc(N5CCCCC5)c4)c3)c(O)cc2n1 [Compound 370, 6-{3-[3-Fluoro-5-(piperidino)benzoylamino]phenyl}-7-hydroxy-2-(isopropylamino)quinazoline] | 215 to 217 |  |
| Cc1ccc(NC(=O)c2ccnc(N3CCOCC3)c2)cc1-c1cc2cnc(NC(C)C)nc2cc1O [Compound 346, 7-Hydroxy-2-isopropylamino-6-{2-methyl-5-[(2-morpholinopyridin-4-yl)carbonylamino]phenyl}quinazoline] | 169 to 172 | ≥ 50 |
| CS(=O)(=O)N1CCC(Nc2ncc3cc(-c4cccc(O)c4)c(O)cc3n2)CC1 [Compound 247, 7-Hydroxy-6-(3-hydroxyphenyl)-2-[1-(methylsulfonyl)piperidin-4-ylamino]quinazoline] | 285 to 290 | ≥ 50 |
| CC[C@H](C)Nc1ncc2cc(-c3cccc(NC(=O)c4ccnc(N5CCOCC5)c4)c3)c(O)cc2n1 [Compound 363, (S)-2-(sec-butylamino)-7-hydroxy-6-{3-[(2-morpholinopyridin-4-yl)carbonylamino]phenyl}quinazoline] | 183 to 184 | ≥ 50 |
| CC(C)Nc1ncc2cc(-c3cccc(C(=O)Nc4cccc(N5CCOCC5)c4)c3)c(O)cc2n1 [Compound 328, 7-Hydroxy-2-isopropylamino-6-{3-[(3-morpholinophenyl)carbamoyl]phenyl}quinazoline] | 248 to 249 | ≥ 50 |
| CCC(CC)Nc1ncc2cc(-c3cccc(NC(=O)c4ccnc(N5CCOCC5)c4)c3)c(O)cc2n1 [Compound 368, 2-(3-Pentylamino)-7-hydroxy-6-{3-[(2-morpholinopyridin-4-yl)carbonylamino]phenyl}quinazoline] | 154 to 155 | ≥ 50 |
| CCC(CC)Nc1ncc2cc(-c3cccc(NC(=O)c4ccnc(N5CCCC5)c4)c3)c(O)cc2n1 [Compound 382, 2-(3-Pentylamino)-7-hydroxy-6-{3-[2-(pyrrolidin-1-yl)pyridin-4-ylcarbonylamino]phenyl}quinazoline] | 194 |  |
| CCC(CC)Nc1ncc2cc(-c3cccc(NC(=O)c4cccc(N(C)C)c4)c3)c(O)cc2n1 [Compound 366, 6-{3-[(3-Dimethylaminophenyl)carbonylamino]phenyl}-2-(3-pentylamino)-7-hydroxyquinazoline] | 152 | ≥ 50 |
| CCC(CC)Nc1ncc2cc(-c3ccccc3C)c(O)cc2n1 [Compound 170, 2-(3-Pentylamino)-7-hydroxy-6-(2-methylphenyl)quinazoline] | 198 to 200 | ≥ 50 |
| CC(C)Nc1ncc2cc(-c3cccc(NC(=O)c4cccc(N5CCCC5)c4)c3)c(O)cc2n1 [Compound 376, 7-Hydroxy-2-isopropylamino-6-{3-[3-(pyrrolidin-1-yl)benzoylamino]phenyl}quinazoline] | 235 to 236 |  |
| Cc1ccc(C(=O)NC2CC2)cc1-c1cc2cnc(NC(C)C)nc2cc1O [Compound 322, 6-(5-Cyclopropylcarbamoyl-2-methylphenyl)-7-hydroxy-2-(isopropylamino)quinazoline] | 156 to 160 | ≥ 50 |
| CC(C)Nc1ncc2cc(-c3cccc(NC(=O)c4ccnc(N5CCN(C)CC5)c4)c3)c(O)cc2n1 [Compound 374, 7-Hydroxy-2-isopropylamino-6-{3-[2-(4-methylpiperazin-1-yl)pyridin-4-ylcarbonylamino]phenyl}quinazoline] | 178 |  |
| Cc1ccccc1-c1cc2cnc(NC3CCCCC3)nc2cc1O [Compound 171, 2-(Cyclohexylamino)-7-hydroxy-6-(2-methylphenyl)quinazoline] | 158 | ≥ 50 |
| CC(C)Nc1ncc2cc(-c3cccc(C(=O)Nc4ccnc(N5CCCC5)c4)c3)c(O)cc2n1 [Compound 372, 7-Hydroxy-2-isopropylamino-6-{3-[2-(pyrrolidin-1-yl)pyridin-4-ylcarbamoyl]phenyl}quinazoline] | 275 to 279 |  |

| Compound | melting point [°C] | inhibition at 1 µM (Activated human p38α) [%] |
| --- | --- | --- |
| COc1cc2nc(NC(C)C)ncc2cc1-c1cc(C(=O)NC2CC2)ccc1C [Compound 236, 6-(5-Cyclopropylcarbamoyl-2-methylphenyl)-2-isopropylamino-7-methoxyquinazoline] | 122 to 125 | ≥ 50 |
| CONC(=O)c1ccc(C)c(-c2cc3cnc(NC(C)C)nc3cc2O)c1 [Compound 353, 7-Hydroxy-2-isopropylamino-6-(5-methoxycarbamoyl-2-methylphenyl)quinazoline] | 158 to 161 | ≥ 50 |
| CC(C)Nc1ncc2cc(-c3cccc(NC(=O)c4ccnc(N5CCCCC5)c4)c3)c(O)cc2n1 [Compound 349, 7-Hydroxy-2-isopropylamino-6-{3-[(2-piperidinopyridin-4-yl)carbonylamino]phenyl}quinazoline] | 226 to 227 | ≥ 50 |
| CC(C)Nc1ncc2cc(-c3cccc(NC(=O)c4cccc(N5CCCCC5)c4)c3)c(O)cc2n1 [Compound 386, 7-Hydroxy-2-isopropylamino-6-{3-[3-(piperidino)benzoylamino]phenyl}quinazoline] | 230 |  |
| COc1ccc(C(F)(F)F)cc1NC(=O)c1ccc(C)c(-c2cc3cnc(NC(C)C)nc3cc2O)c1 [Compound 338, 7-Hydroxy-2-isopropylamino-6-{5-[(2-methoxy-5-trifluoromethylphenyl)carbamoyl]-2-methylphenyl}quinazoline] | 280 to 281 | ≥ 50 |
| Cc1c(F)cc(C(=O)NC2CC2)cc1-c1cc2cnc(NC(C)C)nc2cc1O [Compound 344, 6-(5-Cyclopropylcarbamoyl-3-fluoro-2-methylphenyl)-7-hydroxy-2-(isopropylamino)quinazoline] | 175 to 177 | ≥ 50 |
| CC(C)Nc1ncc2cc(-c3cccc(NC(=O)c4ccnc(N5CCOCC5)c4)c3)c(O)cc2n1 [Compound 290, 7-Hydroxy-2-isopropylamino-6-{3-[(2-morpholinopyridin-4-yl)carbonylamino]phenyl}quinazoline] | 258 | ≥ 50 |
| Cc1cc(F)ccc1-c1cc(C(=O)Nc2cccc(-c3cc4cnc(NC(C)C)nc4cc3O)c2)ccn1 [Compound 388, 6-{3-[2-(4-Fluoro-2-methylphenyl)pyridin-4-ylcarbonylamino]phenyl}-7-hydroxy-2-(isopropylamino)quinazoline] | 224 to 226 |  |
| Cc1ccc(C(N)=O)cc1-c1cc2cnc(NC(C)C)nc2cc1O [Compound 378, 6-(5-Carbamoyl-2-methylphenyl)-7-hydroxy-2-(isopropylamino)quinazoline] | 235 to 236 |  |
| CCONC(=O)c1ccc(C)c(-c2cc3cnc(NC(C)C)nc3cc2O)c1 [Compound 380, 6-(5-Ethoxycarbamoyl-2-methylphenyl)-7-hydroxy-2-(isopropylamino)quinazoline] | 157 |  |
| COc1c(-c2ccccc2Cl)cc2cnc(NC(C)C)nc2c1C(=O)N(C)OC [Compound 71, 6-(2-Chlorophenyl)-2-isopropylamino-7-methoxy-8-(N-methoxy-N-methylaminocarbonyl)quinazoline] |  | ≥ 50 |
| COc1cc2nc(NC3CCN(S(C)(=O)=O)CC3)ncc2cc1-c1cccc(O)c1 [Compound 240, 6-(3-Hydroxyphenyl)-7-methoxy-2-[1-(methylsulfonyl)piperidin-4-ylamino]quinazoline] |  | ≥ 50 |
| COc1cc2nc(N[C@H]3CC[C@H](O)CC3)ncc2cc1-c1ccccc1Cl [Compound 10, 6-(2-Chlorophenyl)-2-(trans-4-hydroxycyclohexylamino)-7-methoxyquinazoline] |  | ≥ 50 |
| CCOC(=O)N1CCC(Nc2ncc3cc(-c4ccccc4Cl)c(OC)cc3n2)CC1 [Compound 149, 6-(2-Chlorophenyl)-2-[1-(ethoxycarbonyl)piperidin-4-ylamino]-7-methoxyquinazoline] |  | ≥ 50 |
| COc1cc2nc(NC3CCN(S(=O)(=O)C(C)C)CC3)ncc2cc1-c1ccccc1Cl [Compound 143, 6-(2-Chlorophenyl)-2-[1-(isopropylsulfonyl)piperidin-4-ylamino]-7-methoxyquinazoline] |  | ≥ 50 |
| CC[C@H](C)Nc1ncc2cc(-c3cccc(NC(=O)c4ccnc(N5CCCC5)c4)c3)c(O)cc2n1 [Compound 384, (S)-2-(sec-Butylamino)-7-hydroxy-6-{3-[2-(pyrrolidin-1-yl)pyridin-4-ylcarbonylamino]phenyl}quinazoline] | 165 to 168 |  |
| CC(C)Nc1ncc2cc(-c3ccccc3Cl)c(OCC(N)=O)cc2n1 [Compound 35, 7-(Carbamoylmethyloxy)-6-(2-chlorophenyl)-2-isopropylaminoquinazoline] |  | ≥ 50 |
